Laboratory results reported in paper PMC11790914, “Chemogenomics for steroid hormone receptors (NR3)” (Communications Chemistry, 2025).
Values joined by “and” are separate entries in the source; they are usually repeats but may differ in a detail not shown here. Identical values can stand only once. Like-named read-outs stand apart in the source and are kept apart here.

Assays:
[1] = test system: HEK293T cells; assay: Cytotoxicity: growth-rate (change in confluence over 24 h); details: 1 µM, normalized to 0.1% DMSO control, single replicates (n=1...)
[2] = test system: NR3A1 (ERα); details: (lit.); ref Supplementary Table 1; read-out: Potency [nM] EC50, NR3A1 (ERα); cited from earlier work
[3] = biological target: T1, TRIM24 (Homo sapiens, UniProt O15164); assay: Liability panel screening by DSF: TRIM24; assay type: binding; details: read-out: Mean ΔTM TRIM24
T1 construct: This panel comprised ten highly ligandable kinases and bromodomains; made in house
T1 sequence (O15164 899-1004 limits assumed): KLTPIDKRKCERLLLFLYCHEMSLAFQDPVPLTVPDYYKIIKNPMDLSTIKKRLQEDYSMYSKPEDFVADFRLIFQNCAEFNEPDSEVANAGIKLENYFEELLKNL
Summary of the method: (§1)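 Thermal shift: in-house recombinant protein at 2 µM in 10 mM HEPES pH 7.5 with 500 mM NaCl, SYPRO Orange 1:1000, heated at 3 °C/min to 85 °C in technical duplicates. Tm is the Boltzmann inflection point, reported as ∆Tm in K.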

[4] = test system: Gal4-VP16; assay type: cell-based; details: 1 µM
Description: Five hours after transfection, the cells were incubated with the NR3 CG compound candidates at the recommended concentrations by changing the medium to Opti-MEM supplemented with penicillin (100 µ/mL) and streptomycin (100 µg/mL) additionally containing 0.1% DMSO and the respective test compound or 0.1% DMSO alone as untreated control. Firefly (reporter) and renilla (control) luminescence were measured after 14–16 h incubation using the Dual-Glo® Luciferase Assay System (Promega, Fitchburg, Wisconsin, USA; #E2980) according to manufacturer’s protocol on a Tecan Spark® 10M multimode microplate reader (Tecan Group AG, Männedorf, Switzerland). To obtain relative light units (RLU) firefly luminescence was divided by renilla luminescence and multiplied by 1000. Fold activation was obtained by dividing the mean RLU of a test sample by the mean RLU of the DMSO (0.1%) control. Experiments were performed in singlets in at least three biologically independent repeats.
are labeled according to their mode of action (yellow - agonist, grey - antagonist, grey with label D - degrader) and grouped by their
NR3 subfamily main targets.
reporter activity at the indicated concentrations expressed as mean fold reporter gene activity (n=3).

[5] = biological target: T2, CSNK1D (Homo sapiens, UniProt P48730); assay: Liability panel screening by DSF: CSNK1D; assay type: binding; details: read-out: Mean ΔTM CSNK1D
T2 construct: made in house
T2 sequence (P48730 whole entry, species assumed): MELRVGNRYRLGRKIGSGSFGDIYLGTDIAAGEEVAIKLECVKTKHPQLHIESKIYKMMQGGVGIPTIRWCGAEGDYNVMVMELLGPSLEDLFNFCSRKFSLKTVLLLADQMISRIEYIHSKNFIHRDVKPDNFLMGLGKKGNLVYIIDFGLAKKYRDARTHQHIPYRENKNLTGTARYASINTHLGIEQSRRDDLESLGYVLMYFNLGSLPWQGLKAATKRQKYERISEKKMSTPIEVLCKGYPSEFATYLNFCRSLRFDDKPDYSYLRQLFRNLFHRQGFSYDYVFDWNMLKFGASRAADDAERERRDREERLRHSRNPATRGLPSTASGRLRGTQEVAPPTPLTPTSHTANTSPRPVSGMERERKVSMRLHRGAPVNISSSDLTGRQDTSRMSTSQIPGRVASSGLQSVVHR
Summary of the method: as §1

[6] = test system: NR3A2 (ERβ); details: (lit.); ref Supplementary Table 1; read-out: Potency [nM] EC50, NR3A2 (ERβ); cited from earlier work
[7] = test system: HEK293T cells; assay: Cytotoxicity: metabolic activity (WST-8 / CCK-8 assay); details: 1 µM, single replicates
[8] = cited from earlier work
[9] = biological target: T3, MAPK1 (Homo sapiens, UniProt P28482); assay: Liability panel screening by DSF: MAPK1; assay type: binding; details: read-out: Mean ΔTM MAPK1
T3 construct: made in house
T3 sequence (P28482 whole entry, species assumed): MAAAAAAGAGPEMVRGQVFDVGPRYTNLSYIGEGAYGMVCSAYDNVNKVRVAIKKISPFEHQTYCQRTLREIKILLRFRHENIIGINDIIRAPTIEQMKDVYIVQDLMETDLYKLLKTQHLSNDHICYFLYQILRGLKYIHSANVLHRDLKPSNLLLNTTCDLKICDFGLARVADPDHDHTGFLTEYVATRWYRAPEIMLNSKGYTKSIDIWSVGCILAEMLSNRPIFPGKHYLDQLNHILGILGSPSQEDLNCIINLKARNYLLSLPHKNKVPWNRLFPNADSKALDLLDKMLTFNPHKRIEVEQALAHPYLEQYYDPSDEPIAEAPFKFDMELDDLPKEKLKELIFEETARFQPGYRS
Summary of the method: as §1

[10] = biological target: T4, BRD4 (Homo sapiens, UniProt O60885); assay: Liability panel screening by DSF: BRD4; assay type: binding; details: read-out: Mean ΔTM BRD4
T4 construct: This panel comprised ten highly ligandable kinases and bromodomains; made in house
Summary of the method: as §1

[11] = biological target: T5, CDK2 (Homo sapiens, UniProt P24941); assay: Liability panel screening by DSF: CDK2; assay type: binding; details: read-out: Mean ΔTM CDK2
T5 construct: made in house
Summary of the method: as §1

[12] = biological target: T6, ABL1 (Homo sapiens, UniProt P00519); assay: Liability panel screening by DSF: ABL1; assay type: binding; details: read-out: Mean ΔTM ABL1
T6 construct: made in house
T6 sequence (P00519 whole entry, species assumed): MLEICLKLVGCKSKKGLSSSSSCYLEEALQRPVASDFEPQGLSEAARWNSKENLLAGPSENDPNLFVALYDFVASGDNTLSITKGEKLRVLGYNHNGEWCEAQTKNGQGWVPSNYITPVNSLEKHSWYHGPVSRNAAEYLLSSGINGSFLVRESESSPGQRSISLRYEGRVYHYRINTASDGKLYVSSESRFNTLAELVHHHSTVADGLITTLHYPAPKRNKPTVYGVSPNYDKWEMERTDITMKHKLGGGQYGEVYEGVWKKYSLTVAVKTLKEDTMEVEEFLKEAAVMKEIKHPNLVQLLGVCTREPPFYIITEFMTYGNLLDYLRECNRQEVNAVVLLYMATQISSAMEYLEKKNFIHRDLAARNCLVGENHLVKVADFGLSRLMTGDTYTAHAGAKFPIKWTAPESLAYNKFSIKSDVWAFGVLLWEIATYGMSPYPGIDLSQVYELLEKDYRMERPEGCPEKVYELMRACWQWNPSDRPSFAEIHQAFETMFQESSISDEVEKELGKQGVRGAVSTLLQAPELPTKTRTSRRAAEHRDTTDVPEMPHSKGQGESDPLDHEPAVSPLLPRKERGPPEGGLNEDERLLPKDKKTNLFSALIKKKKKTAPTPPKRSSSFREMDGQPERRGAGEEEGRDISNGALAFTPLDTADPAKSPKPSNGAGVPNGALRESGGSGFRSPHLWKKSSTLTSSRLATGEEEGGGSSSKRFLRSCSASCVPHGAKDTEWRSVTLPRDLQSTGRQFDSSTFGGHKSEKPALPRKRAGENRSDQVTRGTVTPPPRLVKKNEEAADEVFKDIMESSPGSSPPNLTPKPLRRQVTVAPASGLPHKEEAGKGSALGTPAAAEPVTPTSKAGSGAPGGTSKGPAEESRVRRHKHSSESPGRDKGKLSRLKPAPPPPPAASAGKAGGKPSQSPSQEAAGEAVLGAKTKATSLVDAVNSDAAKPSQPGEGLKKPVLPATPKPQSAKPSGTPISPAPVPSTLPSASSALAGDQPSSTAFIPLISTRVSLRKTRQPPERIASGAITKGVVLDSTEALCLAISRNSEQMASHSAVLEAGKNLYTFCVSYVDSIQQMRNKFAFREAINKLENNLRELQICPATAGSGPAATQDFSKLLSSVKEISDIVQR
Summary of the method: as §1

[13] = biological target: T7, GSK3B (Homo sapiens, UniProt P49841); assay: Liability panel screening by DSF: GSK3B; assay type: binding; details: read-out: Mean ΔTM GSK3B
T7 construct: made in house
T7 sequence (P49841 whole entry, species assumed): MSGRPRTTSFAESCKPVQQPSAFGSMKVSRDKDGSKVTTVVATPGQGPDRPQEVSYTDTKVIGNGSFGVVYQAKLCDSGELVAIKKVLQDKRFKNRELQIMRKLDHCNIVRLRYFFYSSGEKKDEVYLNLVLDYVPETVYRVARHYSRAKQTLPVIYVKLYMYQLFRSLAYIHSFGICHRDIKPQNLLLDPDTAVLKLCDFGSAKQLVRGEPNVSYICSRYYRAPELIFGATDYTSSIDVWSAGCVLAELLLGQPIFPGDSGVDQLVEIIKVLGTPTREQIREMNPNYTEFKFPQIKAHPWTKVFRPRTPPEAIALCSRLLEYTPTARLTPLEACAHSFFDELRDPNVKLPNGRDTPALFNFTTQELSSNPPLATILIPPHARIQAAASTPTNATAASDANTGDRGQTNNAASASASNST

[14] = biological target: T8, FGFR3 (Homo sapiens, UniProt P22607); assay: Liability panel screening by DSF: FGFR3; assay type: binding; details: read-out: Mean ΔTM FGFR3
T8 construct: made in house
T8 sequence (P22607 23-806, species assumed): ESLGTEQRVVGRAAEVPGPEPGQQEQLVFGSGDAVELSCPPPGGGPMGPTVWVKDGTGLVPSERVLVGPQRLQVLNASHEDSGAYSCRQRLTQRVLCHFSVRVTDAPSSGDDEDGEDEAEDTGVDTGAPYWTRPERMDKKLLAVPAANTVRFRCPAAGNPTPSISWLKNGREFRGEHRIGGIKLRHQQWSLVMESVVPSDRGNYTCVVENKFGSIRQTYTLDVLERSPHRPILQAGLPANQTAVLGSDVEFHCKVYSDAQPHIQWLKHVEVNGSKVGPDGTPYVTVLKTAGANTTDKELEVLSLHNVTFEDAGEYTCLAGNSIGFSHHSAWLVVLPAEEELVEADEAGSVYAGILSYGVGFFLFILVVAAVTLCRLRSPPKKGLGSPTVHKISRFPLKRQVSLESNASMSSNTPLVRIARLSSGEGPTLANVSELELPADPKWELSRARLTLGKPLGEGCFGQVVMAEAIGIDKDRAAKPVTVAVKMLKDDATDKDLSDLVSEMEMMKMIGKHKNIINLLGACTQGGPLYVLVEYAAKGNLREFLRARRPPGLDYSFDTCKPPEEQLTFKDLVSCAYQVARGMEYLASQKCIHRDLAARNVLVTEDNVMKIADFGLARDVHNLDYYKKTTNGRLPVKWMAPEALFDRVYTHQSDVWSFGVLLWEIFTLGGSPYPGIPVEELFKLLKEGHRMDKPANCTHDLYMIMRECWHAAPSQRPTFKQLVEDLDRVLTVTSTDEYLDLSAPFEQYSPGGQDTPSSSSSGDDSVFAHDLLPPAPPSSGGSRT
Summary of the method: as §1

[15] = test system: HEK293T cells; assay: Evaluation of cytotoxicity (overall: growth-rate, metabolic activity, apoptosis, necrosis); assay type: cell-based; details: HEK293T, 24 h; budesonide (3 µM), others at tested concentration
Description: The selection of 40 CG candidates was acquired from commercial vendors (purity ≥95%) and applied to initial toxicity screening. Cytotoxicity was determined in HEK293T cells considering growth-rate, metabolic activity as well as apoptosis and/or necrosis induction to evaluate suitability of the compounds for CG application in cellular settings (Fig. 3a–d, Supplementary Fig. 1, Supplementary Data 1). The candidates were generally well tolerated at concentrations >>EC50/IC50 that we recommend for CG application with only four compounds showing mild toxic effects. […] In terms of cytotoxicity, all candidates thus appeared suitable for inclusion in an NR3 CG set.

[16] = biological target: T9, AURKA (Homo sapiens, UniProt O14965); assay: Liability panel screening by DSF: AURKA; assay type: binding; details: read-out: Mean ΔTM AURKA
T9 construct: made in house
T9 sequence (O14965 1-403): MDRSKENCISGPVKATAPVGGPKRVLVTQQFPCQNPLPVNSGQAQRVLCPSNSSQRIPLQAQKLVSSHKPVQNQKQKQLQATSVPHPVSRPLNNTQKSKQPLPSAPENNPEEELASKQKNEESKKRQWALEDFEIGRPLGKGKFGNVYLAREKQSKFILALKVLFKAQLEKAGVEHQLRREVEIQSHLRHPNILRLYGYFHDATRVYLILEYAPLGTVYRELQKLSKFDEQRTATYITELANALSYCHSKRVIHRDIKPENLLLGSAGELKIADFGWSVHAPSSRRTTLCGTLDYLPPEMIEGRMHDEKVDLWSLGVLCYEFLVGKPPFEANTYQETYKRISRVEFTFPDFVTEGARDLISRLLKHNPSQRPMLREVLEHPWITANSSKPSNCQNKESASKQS
Summary of the method: as §1

[17] = test system: HEK293T cells; assay: Cytotoxicity: apoptosis induction (caspase-3/7 DEVD fluorogenic DNA dye); details: for Apoptosis induction [AI]: 1 µM, single replicates
[18] = biological target: T10, BRPF1 (Homo sapiens, UniProt P55201); assay: Liability panel screening by DSF: BRPF1; assay type: binding; details: read-out: Mean ΔTM BRPF1
T10 construct: This panel comprised ten highly ligandable kinases and bromodomains; made in house
T10 sequence (P55201 628-732 limits assumed): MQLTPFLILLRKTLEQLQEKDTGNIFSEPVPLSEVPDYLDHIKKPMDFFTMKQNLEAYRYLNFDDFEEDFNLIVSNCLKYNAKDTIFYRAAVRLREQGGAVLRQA
Summary of the method: as §1

[19] = test system: HEK293T cells; assay: Cytotoxicity: necrosis induction (red fluorescent dye for permeable plasma membranes); assay type: cell-based; details: 1 µM, 24 h, necrotic cell count normalized to 0.1% DMSO, single replicates;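 note: compounds applied in DMEM high glucose with 0.1% FCS and 0.1% DMSO, necrotic HEK293T cells counted by red staining of cells whose plasma membranes had become permeable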
[20] = test system: NR3C2 (MR); details: (lit.); ref Supplementary Table 1; read-out: Potency [nM] EC50, NR3C2 (MR); cited from earlier work
[21] = test system: NR3C4 (AR); details: read-out: Potency [nM] EC50, NR3C4 (AR); cited from earlier work
[22] = test system: NR3C3 (PR); details: (lit.); ref Supplementary Table 1; read-out: Potency [nM] EC50, NR3C3 (PR); cited from earlier work
[23] = test system: NR3C1 (GR); details: (lit.); ref Supplementary Table 1; read-out: Potency [nM] EC50, NR3C1 (GR); cited from earlier work
[24] = test system: ATF6 activity in Hela ATF6 reporter cells; assay: Endoplasmic reticulum stress assay (ATF6 Renilla luciferase reporter, tunicamycin); assay type: cell-based; details: Homo sapiens, HeLa, 1 µM, single replicates n=1 to n=5; read-out: ER stress [rel. ATF6 activity]
Summary of the method: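 ER stress was induced by 100 ng/mL tunicamycin added 4 h after compound (0.1% DMSO) to HeLa ATF6 reporter cells. After 18 h more, Renilla luciferase signal was read and expressed relative to DMSO control, n=5 biological replicates.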

[25] = test system: NF-κB activity in HEK293 NF-κB reporter cells; assay: NF-kB activity assay (GFP reporter, ionomycin/PMA); assay type: cell-based; details: n=3
Summary of the method: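 Reporter readout: GFP-expressing cells normalized to confluence, imaged every 90 min across 24 h after ionomycin (100 ng/mL)/PMA (10 ng/mL) stimulation of HEK293 cells pre-treated 4 h with compound (0.1% DMSO); triplicate independent experiments.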

In the case of `C#C[C@]1(O)CC[C@H]2[C@@H]3CCc4cc(O)ccc4[C@H]3CC[C@@]21C` [Ethinylestradiol], the “Growth rate [GR]” value [1] is listed as 1.36 and 0.84 and 1.03 and 0.88 and 0.94 and 0.78, the EC50 [2] is listed as 8 ± 1 nM and the ΔTm at 20 µM ([3]; DSF, 20 µM, n=2) is listed as -1.12 °C. The “VP16 control [fold reporter gene activity] (n=3), n=1” value ([4]; replicate n=1) was 1.03 fold, the “VP16 control [fold reporter gene activity] (n=3), n=2” value ([4]; replicate n=2) was 0.89 fold and the “VP16 control [fold reporter gene activity] (n=3), n=3” value ([4]; replicate n=3) was 0.92 fold. The ΔTm at 20 µM ([5]; DSF, 20 µM, n=2) was 0.07 °C, the EC50 [6] was 18 ± 2 nM and the “Metabolic activity [MA]” value ([7]; DMSO 0.1% = 1.00) was 1.06 (2×) and 0.82 and 1.07 and 1.00 and 0.95. For the same compound, the “NR off-target at recom. conc.” value ([8]; known NR off-target at the recommended concentration, ref Supplementary Table 1 (superscript references)) was “NR1I3”, the “Other off-target at recom. conc.” value ([8]; known off-target outside the NR family at the recommended concentration, ref Supplementary Table 1 (superscript references)) was “AOX1 and CYP2B6 and SULT1A1 and OCT2” and the “Reason for exclusion: number of annotated off-targets” value ([8]; other targets with annotated bioactivities at ≤10 µM in previously published dataset) was > 5 off-targets. The ΔTm at 20 µM ([9]; DSF, 20 µM, n=2) was 0.35 °C, the ΔTm at 20 µM ([10]; DSF, 20 µM, n=2) was 0.13 °C and the ΔTm at 20 µM ([11]; DSF, 20 µM, n=2) was -0.25 °C. It also gave a ΔTm at 20 µM ([12]; DSF, 20 µM, n=2) of -0.29 °C, a ΔTm at 20 µM ([13]; DSF, 20 µM, n=2) of 0.23 °C and a ΔTm at 20 µM ([14]; DSF, 20 µM, n=2) of -0.28 °C. For the same compound, the “effects on growth-rate, metabolic activity and necrosis” value [15] was “without relevant effects”, the ΔTm at 20 µM ([16]; DSF, 20 µM, n=2) was 0.11 °C and the “Apoptosis induction [AI]” value ([17]; DMSO 0.1% = 1.00) was 1.56 and 1.81. For the same compound, the apoptosis induction ([17]; HEK293T, 24 h, budesonide (3 µM), others at tested concentration) was “slight apoptosis induction” and the ΔTm at 20 µM ([18]; DSF, 20 µM, n=2) was 1.32 °C.

For `C[C@]1(O)CC[C@H]2[C@@H]3CCC4=CC(=O)CCC4=C3C=C[C@@]21C` [Methyltrienolone], the “Necrosis induction [NI]” value [19] is given as 0.85 and 1.01 and 0.97 and 1.35, the EC50 [20] is given as 0.5 ± 0.1 nM and the “Growth rate [GR]” value [1] is given as 0.54 and 2.52 and 1.01 and 1.07 and 0.85 and 1.02 and 1.00 and 1.19 and 1.25 and 1.79. For the same compound, the ΔTm at 20 µM [3] was -0.03 °C, the EC50 [21] was 0.01 ± 0.01 nM and the ΔTm at 20 µM [5] was -0.05 °C. The “Metabolic activity [MA]” value ([7]; HEK293T, 24 h, WST-8, normalized to 0.1% DMSO) was 0.98 and 1.02 and 0.97 (2×) and 1.07 and 1.05 and 1.13 and 1.10, the ΔTm at 20 µM [9] was -0.02 °C and the ΔTm at 20 µM [10] was -0.94 °C. The EC50 [22] was 0.5 ± 0.3 nM, the EC50 [23] was 10 ± 4 nM and the ΔTm at 20 µM [11] was -0.06 °C. It also gave an activity at 1 µM [24] of 100%, a ΔTm at 20 µM [12] of 0.42 °C and a ΔTm at 20 µM [13] of -0.24 °C. The ΔTm at 20 µM [14] was 0.15 °C, the “Mean NFκB response” value ([25]; 1 µM, 1,5 h) was 3531.33 GFP+-cells/confluence ∙ 1000 and the “Mean NFκB response” value ([25]; 1 µM, 4,5 h) was 3781.33 GFP+-cells/confluence ∙ 1000. The “Mean NFκB response” value ([25]; 1 µM, 7,5 h) was 7660.67 GFP+-cells/confluence ∙ 1000, the “Mean NFκB response” value ([25]; 1 µM, 10,5 h) was 17176.00 GFP+-cells/confluence ∙ 1000 and the “Mean NFκB response” value ([25]; 1 µM, 13,5 h) was 24525.33 GFP+-cells/confluence ∙ 1000. For the same compound, the “Mean NFκB response” value ([25]; 1 µM, 16,6 h) was 30685.33 GFP+-cells/confluence ∙ 1000, the “Mean NFκB response” value ([25]; 1 µM, 19,5 h) was 34386.67 GFP+-cells/confluence ∙ 1000 and the “Mean NFκB response” value ([25]; 1 µM, 22,5 h) was 37650.00 GFP+-cells/confluence ∙ 1000. The “Mean NFκB response” value ([25]; 1 µM, 3 h) was 3552.67 GFP+-cells/confluence ∙ 1000, the “Mean NFκB response” value ([25]; 1 µM, 6 h) was 4781.67 GFP+-cells/confluence ∙ 1000 and the “Mean NFκB response” value ([25]; 1 µM, 9 h) was 12656.33 GFP+-cells/confluence ∙ 1000. For the same compound, the “Mean NFκB response” value ([25]; 1 µM, 12 h) was 21183.67 GFP+-cells/confluence ∙ 1000, the “Mean NFκB response” value ([25]; 1 µM, 15 h) was 28114.67 GFP+-cells/confluence ∙ 1000 and the “Mean NFκB response” value ([25]; 1 µM, 18 h) was 32970.33 GFP+-cells/confluence ∙ 1000. The “Mean NFκB response” value ([25]; 1 µM, 21 h) was 36266.67 GFP+-cells/confluence ∙ 1000, the “Mean NFκB response” value ([25]; 1 µM, 24 h) was 38486.67 GFP+-cells/confluence ∙ 1000 and the ΔTm at 20 µM [16] was 0.08 °C. For the same compound, the “Apoptosis induction [AI]” value ([17]; HEK293T, 24 h, apoptotic cell count normalized to 0.1% DMSO) was 0.87 and 1.36 and 0.90 and 1.12 and 0.53 and 0.75 and the ΔTm at 20 µM [18] was -1.21 °C.
